This assay has as its system HUVEC cells. The assay can be described thus: Test of in vitro proliferation of HUVEC cells induced with FGF-2. Particulars: Homo sapiens, FGF-2 1 ng/ml induced proliferation, ATP luminescence, head says M, cells print nM. The assay is classed as cell-based. The procedure:
The compounds according to the invention underwent biochemical studies in order to determine their capacity to inhibit the enzyme methionine-aminopeptidase2 (enzymatic test on isolated enzyme). […] Consequently, the compounds of the invention that show good activity in the MetAP2 enzymatic test were evaluated in a test of in vitro proliferation of HUVEC cells induced with FGF-2. […] After incubation for 48 hours, the medium is aspirated and replaced with the deprivation medium RPMI1640 mentioned previously. A second stimulation is then performed. The cells are again incubated at 37° C. in the presence of CO2. After incubation for 72 hours, the medium is again aspirated and 100 μl of Cell Titer-GLOTM Luminescent Cell Viability Assay (Promega, G7571) are added over 10 minutes. The amount of ATP present in the cells, measured using a luminometer, is proportional to the number cells per well corresponding to the cell proliferation.

Each structure is given as a SMILES string.

As for `O=c1c2cn[nH]c2c2ccc(-c3ccccc3F)cc2n1CC(F)(F)F` [Compound 3, 7-(2-fluorophenyl)-5-(2,2,2-trifluoroethyl)-1,5-dihydro-4H-pyrazolo[4,3-c]quinolin-4-one], the IC50 (usually the concentration needed to halve the response being measured) stood at 660 nM. The compound `Cc1cc(-c2ccc3c4[nH]ncc4c(=O)n(CC(F)(F)F)c3c2)ccn1` [Compound 186, 7-(2-methylpyrid-4-yl)-5-(2,2,2-trifluoroethyl)-1,5-dihydro-4H-pyrazolo[4,3-c]quinolin-4-one] registered an IC50 of 360 nM.
